Like-named read-outs stand apart in the source and are kept apart here.
Key:
[1] = In vivo pharmacokinetics after tail vein injection; details: male, Sprague-Dawley, rat, plasma, rats, IV 1 mg/kg, n = 3
Experimental: The in vivo profiling of free 053, 053-F127 NCs, and 053-PPP NC micelles were evaluated and compared using PK tests in male Sprague Dawley rats with individual weights of ~200 g (from the Laboratory Animal Center of Anhui Medical University, Hefei, China), approved by the Animal Ethics Committee of Hefei Institutes of Physical Science, Chinese Academy of Sciences, Hefei, China (approval code: DW-2019-20). The rats were housed in an air-conditioned room at 23 ± 2 °C and humidity of ~50%. After acclimatizing the facilities for 1 week, the rats were randomly divided into three groups (three per group): free 053, 053-F127 NC, and 053-PPP NC micelle. The rats were fasted for 12 h prior to drug administration. Free 053 (dissolved in 10% v/v DMSO in glucose 5%), 053-F127 NC, and 053-PPP NC micelle suspensions were administrated by tail vein injection at a dose of 1 mg/kg. Blood samples were collected in heparinized tubes at 2, 5, 15, 30 min and 1, 2, 4, 6, 9, 12, and 24 h (for all three groups). For the 053-PPP NC micelle group, blood was sampled at another three time points of 72, 96, and 120 h. The collected fresh blood samples were immediately processed in accordance with the following protocol: (1) collection of 100 μL of plasma by centrifuging the blood samples for 3 min at 6000 rpm and 4 °C, followed by storage at –80 °C for further analysis; (2) 20 μL of 200 ng/mL of caffeine (as an internal standard solution) was added to 100 μL of each plasma sample; (3) 400 μL of methanol was applied, vortexed for 5 min, and centrifuged at 14,000 rpm for 10 min; (4) the collected supernatants were quantified via LC-MS/MS analysis by loading 5 μL of supernatant. The collected data were analyzed by the non-compartment model using WinNonlin 8.1 software (Pharsight Corporation, Mountain View, CA, USA) to elucidate the PK parameters.

[2] = tested on: K562 xenograft; experiment: In vivo anticancer efficacy in K562 xenograft mouse model; parameters: species or system Bal B/c nude mice; details: 40 mg/kg QD, PO, n = 5
Experimental: Female Bal B/c nude mice were used to establish K562 xenograft mouse models according to the protocol described above. When the tumors reached 150–200 mm^3, the mice were randomly divided into seven groups (n = 5) for the evaluation of antitumor efficacy in vivo at 40 mg/kg: Vehicle, free 053 QD (Once a day, PO), 053-F127 NC QD (IV), 053-F127 NC Q2D (Once every other day, IV), 053-PPP NC QD (IV), 053-PPP NC Q2D (IV), and 053-PPP NC Q4D (once every 4 days, IV). During the treatment, body weight and tumor growth were measured daily. Tumor volumes (V) were calculated as follows (Equation (3)):V (mm^3) = [(W^2 × L)/2],(3) where width (W) and length (L) are defined as the lower and higher of two measurements, respectively. When the tumors of the vehicle group reached the limit of the animal ethical regulations, the test was stopped. All the mice were euthanized, and major tissues/organs were harvested for immunohistochemical (IHC) analysis, including HE, Ki-67, and TUNEL staining.

[3] = parameters: method as in PMID 26789553; details: 50 mg/kg, P.O.; cited from earlier work
[4] = tested on: K562 cells; experiment: In vitro cell toxicity assay (CCK8); format: cell-based; details: Homo sapiens, K562, 72 h
Experimental: The K562 cell line used in this work was ordered from the American Type Culture Collection (ATCC, Manassas, VA, USA). The K562 cells were cultured in RPMI 1640 with 10% fetal bovine serum (FBS) (VivaCell, Shanghai, China) and 1% penicillin/streptomycin in a humidified incubator at 37 °C with 5% CO2. Firstly, K562 cells were seeded into 96-well plates with 100 μL of 1640 medium containing 3000 cells per well, and were incubated at 37 °C under 5% CO2. Subsequently, the cells in each well were treated with a series of concentrations of free 053 in DMSO, 053-F127 NCs, and 053-PPP NC micelles, respectively. Cell viability was determined using the Cell Counting Kit-8 (CCK8) (Best Bio, Shanghai, China) based on the manufacturer’s instructions. Subsequently, 10 μL of CCK8 solution was added to each well, and the absorbance of each well at a wavelength of 450 nm was measured using a microplate reader (iMARK, Bio-Rad, Hercules, CA, USA) after further incubation for 1 h at 37 °C. The absorbance was normalized and plotted as a function of drug concentration. The GI50 values were calculated using GraphPad Prism 8.0 (San Diego, CA, USA).

[5] = parameters: method as in PMID 26789553; details: cited from earlier work
[6] = tested on: K562 cells; parameters: method as in PMID 26789553; details: against K562 cells; cited from earlier work

- AUC(0-inf) [1]: 509 ± 132 ng·h/mL
- AUC(0-t) [1]: 499 ± 132 ng·h/mL
- C0 [1]: 555 ± 142 ng/mL
- Cmax [1]: 364 ± 42 ng/mL
- Tmax [1]: 1.8 min
- clearance [1]: 34.3 mL/min/kg
- half-life [1]: 121 ± 25.2 min
- MRT last ([1]; read-out: MRT0–t): 2.54 ± 0.55 h
- MRT inf ([1]; read-out: MRT0–∞): 2.78 ± 0.57 h
- Vd ([1]; read-out: Vz): 5.87 ± 1.33 L/kg
Compound: CNc1ncncc1C(=O)Nc1cc(NC(=O)c2cccc(C(F)(F)F)c2)ccc1C [Free 053, N-(2-methyl-5-(3-(trifluoromethyl)benzamido)phenyl)-4-(methylamino)pyrimidine-5-carboxamide]
- tumor inhibition efficacy compared with the vehicle group [2]: did not show a significant difference
- TGI [3]: 48.3%
- GI50 [4]: 5.95 ± 1.95 nM
- oral bioavailability [5]: ~ 24%
- GI50 [6]: ~14 nM
